Measured values taken from paper PMC12467033, “Exploring the Inhibitory Potential of Six Porphyrin Compounds Against α-Amylase and α-Glucosidase Linked to Diabetes” (Biomolecules, 2025).
“And” between values parts separate entries of the source, which are not always exact repeats. Identical values can stand only once. Like-named read-outs stand apart in the source and are kept apart here.

How the values were obtained:
α-amylase [1] = target: T1, α-amylase (Sus scrofa, UniProt P00690); assay: FTIR secondary structure analysis of α-AMY complexes; settings: enzyme–porphyrin molar ratio 1:2, amide I band
T1 sequence (P00690 16-511): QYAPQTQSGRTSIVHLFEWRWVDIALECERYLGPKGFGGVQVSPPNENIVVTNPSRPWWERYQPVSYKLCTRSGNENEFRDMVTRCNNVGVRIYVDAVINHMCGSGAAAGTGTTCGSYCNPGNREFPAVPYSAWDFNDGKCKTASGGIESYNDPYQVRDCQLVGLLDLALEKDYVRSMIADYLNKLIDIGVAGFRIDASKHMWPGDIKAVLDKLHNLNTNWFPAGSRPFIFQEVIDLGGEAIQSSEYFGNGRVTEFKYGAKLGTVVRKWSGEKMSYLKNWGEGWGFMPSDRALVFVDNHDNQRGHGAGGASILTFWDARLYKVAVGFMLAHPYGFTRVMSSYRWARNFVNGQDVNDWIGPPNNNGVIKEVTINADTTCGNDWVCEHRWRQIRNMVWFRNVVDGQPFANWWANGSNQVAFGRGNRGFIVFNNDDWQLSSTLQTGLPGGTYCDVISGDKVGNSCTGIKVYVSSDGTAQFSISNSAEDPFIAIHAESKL
Excerpt: (§1) A molar ratio of 1:2 (α-amylase/α-glucosidase)–porphyrin solution was placed in a cryocentrifugal concentrator and the dried solid sample was mixed with dry KBr and measured using a Nicolet IS-50 FTIR Spectrometer (ThermoFisher, Waltham, MA, USA) with a scanning range of 4000–400 cm^−1 and a resolution of 4 cm^−1. The overlapping peaks in the amide I band (1700–1600 cm^−1) were further analyzed into multiple feature sub-peaks, and quantitative analysis of the relative content of various secondary structures in proteins using curve fitting methods was performed.

α-glucosidase [2] = target: T2, α-glucosidase (Saccharomyces cerevisiae, UniProt P53341); assay: FTIR secondary structure analysis of α-GLU complexes; settings: enzyme–porphyrin molar ratio 1:2, amide I band
Excerpt: as §1

α-amylase [3] = target: T1, α-amylase; assay: Mode of α-AMY inhibition (reversibility, Lineweaver–Burk kinetics); assay type: biochemical; settings: for type of inhibition of α-amylase: Lineweaver–Burk plots; for reversibility of inhibition of α-amylase: enzyme 100–400 U/L, substrate 5 mmol/L; for Kis: enzyme–substrate complex inhibition constant
Excerpt: (§2) In the experiment, the concentration of the fixed substrate Gal-G2-α-CNP/pNPG solution was 5 mmol/L, and the concentrations of the two enzymes (100, 200, 300, 400 U/L) were used to determine the effect of different concentrations of porphyrins on enzyme activity. The concentration of the enzyme was 200 U/L, and the concentration of the substrate Gal-G2-α-CNP/pNPG solution (2.5, 5, 7.5, 10 mmol/L) was used to determine the effect of different concentrations of porphyrins on the enzyme-catalyzed substrate activity.
(§3) Upon identifying the type of inhibition, the kinetic equations vary for different inhibition types.
(§4) In the formula, v, Vmax, Km, Ki, and Kis represent the reaction rate, maximum reaction rate, Michaelis constant, and free enzyme inhibition constant, respectively, and the binding enzyme inhibition constant. [S] denotes the substrate concentration. [I] denotes the inhibitor concentration.

α-glucosidase [4] = target: T2, α-glucosidase; assay type: biochemical; settings: for type of inhibition of α-glucosidase: Lineweaver–Burk plots; for reversibility of inhibition of α-glucosidase: enzyme 100–400 U/L, substrate 5 mmol/L
Excerpt: as §2, §3, §4

α-amylase [5] = target: T1, α-amylase; assay: Fluorescence quenching, binding and thermodynamics with α-amylase; settings: for quenching mechanism of α-amylase fluorescence: Stern–Volmer plots; for ΔH^0 / ΔS^0: Van’t Hoff
Excerpt: In the α-amylase experiment, a series of porphyrins and amylase (200 U/L) were mixed in a volume ratio of 1:1.
The Stern–Volmer equation [35] was adopted to determine the quenching mechanisms between six porphyrin compounds and both enzymes in the experimental group, with Formula (6):(6) F0/F=1+Ksv[Q]=1+Kqτ0[Q]
The Stern–Volmer equation was adapted based on experimental data to more accurately characterize the quenching behavior [36], with Formula (7):(7) F0/F=e^Ksv[Q]=e^Kqτ0[Q]
In the formula, the fluorescence quenching ratio was calculated as F0/F, where F0 corresponds to the emission intensity of pure α-amylase solution (control) and F denotes the intensity measured after the incremental addition of porphyrin ligands. KSV and Kq denote the Stern–Volmer quenching constant and the bimolecular quenching rate constant, respectively, τ0 (10^−8 s) is the average fluorescence lifetime of the fluorophore in the absence of quencher, and [Q] indicates the concentration of porphyrin compounds.
Due to the presence of an internal filtration effect, a decrease in the fluorescence intensity of the system may occur. Therefore, all fluorescence data were corrected using Formula (8) to eliminate the internal filtration effect.(8) Fcor=Fobse^(Aex+Aem)/2
The evaluation of the interaction forces between porphyrin compounds and the two enzymes can be achieved by calculating thermodynamic parameters. When both ΔH^0 and ΔS^0 are positive, the predominant interaction force is hydrophobic. When both ΔH^0 and ΔS^0 are negative, the main forces are hydrogen bonding and van der Waals forces. When ΔH^0 < 0 and ΔS^0 > 0, the primary interaction is electrostatic attraction.
The thermodynamic parameters were calculated using Formulas (9) and (10), and then the Van’t Hoff plot for the interactions between the porphyrin compounds and the two enzymes was generated by plotting lnKa on the Y-axis versus 1/T on the X-axis.(9) lnKa=−ΔH^0/RT+ΔS^0/R (10) ΔG^0=ΔH^0−TΔS^0=−RTlnKa

[6] = free enzyme inhibition constant

T2 sequence (P53341 whole entry): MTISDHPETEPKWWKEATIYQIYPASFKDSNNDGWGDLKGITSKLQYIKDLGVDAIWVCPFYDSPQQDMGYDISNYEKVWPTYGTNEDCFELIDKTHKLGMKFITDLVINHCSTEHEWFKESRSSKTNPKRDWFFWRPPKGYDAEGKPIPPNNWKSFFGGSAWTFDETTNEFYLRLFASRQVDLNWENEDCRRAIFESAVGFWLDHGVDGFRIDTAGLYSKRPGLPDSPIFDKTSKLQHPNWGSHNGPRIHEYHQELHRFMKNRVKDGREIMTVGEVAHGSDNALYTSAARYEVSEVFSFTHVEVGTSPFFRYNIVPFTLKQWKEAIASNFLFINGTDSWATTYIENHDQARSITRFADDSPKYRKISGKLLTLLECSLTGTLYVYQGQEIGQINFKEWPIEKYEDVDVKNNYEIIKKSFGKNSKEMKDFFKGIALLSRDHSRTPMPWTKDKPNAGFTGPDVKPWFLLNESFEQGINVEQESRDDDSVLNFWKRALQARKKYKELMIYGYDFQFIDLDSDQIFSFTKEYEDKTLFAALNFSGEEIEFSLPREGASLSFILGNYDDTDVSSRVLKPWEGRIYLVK

Oc1ccc(-c2c3nc(c(-c4ccc(O)cc4)c4ccc([nH]4)c(-c4ccc(O)cc4)c4nc(c(-c5ccc(O)cc5)c5ccc2[nH]5)C=C4)C=C3)cc1 [THPP]
Random Coil (α-amylase [1]): 17.71 ± 0.07% | α-Helix (α-amylase [1]): 22.24 ± 0.06% | β-Antiparallel (α-amylase [1]): 13.37 ± 0.03% | β-Sheet (α-amylase [1]): 12.92 ± 0.05% | β-Turn (α-amylase [1]): 33.76 ± 0.08% | Random Coil (α-glucosidase [2]): 23.74 ± 0.06% | α-Helix (α-glucosidase [2]): 21.19 ± 0.05% | β-Antiparallel (α-glucosidase [2]): 7.07 ± 0.01% | β-Sheet (α-glucosidase [2]): 12.79 ± 0.03% | β-Turn (α-glucosidase [2]): 35.20 ± 0.11% | Vmax (α-amylase [3]; C 20 μg/mL): 0.0740 ± 0.0028 ΔOD/min | Vmax (α-amylase [3]; C 30 μg/mL): 0.0580 ± 0.0010 ΔOD/min | Vmax (α-amylase [3]; C 40 μg/mL): 0.0491 ± 0.0012 ΔOD/min | Vmax (α-amylase [3]; C 50 μg/mL): 0.0426 ± 0.0013 ΔOD/min | Vmax (α-amylase [3]; C 60 μg/mL): 0.0376 ± 0.0012 ΔOD/min | type of inhibition of α-amylase (α-amylase [3]): mixed type | reversibility of inhibition of α-amylase (α-amylase [3]): reversible inhibition | Kis (α-amylase [3]): 23.1012 ± 0.1027 µg/mL | Vmax (α-glucosidase [4]; C 1 μg/mL): 0.1528 ± 0.0020 ΔOD/min | Vmax (α-glucosidase [4]; C 2.5 μg/mL): 0.1013 ± 0.0035 ΔOD/min | Vmax (α-glucosidase [4]; C 5 μg/mL): 0.0649 ± 0.0019 ΔOD/min | Vmax (α-glucosidase [4]; C 7.5 μg/mL): 0.0489 ± 0.0009 ΔOD/min | Vmax (α-glucosidase [4]; C 10 μg/mL): 0.0377 ± 0.0009 ΔOD/min | type of inhibition of α-glucosidase (α-glucosidase [4]): non-competitive inhibition | reversibility of inhibition of α-glucosidase (α-glucosidase [4]): reversible inhibition | quenching mechanism of α-amylase fluorescence (α-amylase [5]; 298–310 K): pure static quenching | Kq (α-amylase [5]; T 298 K): 8.90 ± 0.06 ×10^12 L/mol/s | Ksv (α-amylase [5]; T 298 K): 8.90 ± 0.06 ×10^4 L/mol | n (number of binding sites) (α-amylase [5]; T 298 K): 1.19 | ΔG^0 (α-amylase [5]; T 298 K): -7.844 ± 0.019 kcal/mol | Kq (α-amylase [5]; T 304 K): 8.20 ± 0.02 ×10^12 L/mol/s | Ksv (α-amylase [5]; T 304 K): 8.20 ± 0.02 ×10^4 L/mol | n (number of binding sites) (α-amylase [5]; T 304 K): 1.16 | ΔG^0 (α-amylase [5]; T 304 K): -7.737 ± 0.019 kcal/mol | Kq (α-amylase [5]; T 310 K): 7.64 ± 0.07 ×10^12 L/mol/s | Ksv (α-amylase [5]; T 310 K): 7.64 ± 0.07 ×10^4 L/mol | n (number of binding sites) (α-amylase [5]; T 310 K): 1.12 | ΔG^0 (α-amylase [5]; T 310 K): -7.646 ± 0.017 kcal/mol | ΔH^0 (α-amylase [5]; 298–310 K): -12.73 ± 0.012 kcal/mol | ΔS^0 (α-amylase [5]; 298–310 K): −68.61 ± 0.06 J/mol/k

O=C(O)c1ccc(-c2c3nc(c(-c4ccc(C(=O)O)cc4)c4ccc([nH]4)c(-c4ccc(C(=O)O)cc4)c4nc(c(-c5ccc(C(=O)O)cc5)c5ccc2[nH]5)C=C4)C=C3)cc1.[Cu+2] [Cu–TCPP, copper (II) meso-tetra (4-carboxyphenyl)porphyrin]
Random Coil (α-amylase [1]): 20.94 ± 0.06% | α-Helix (α-amylase [1]): 20.76 ± 0.05% | β-Antiparallel (α-amylase [1]): 12.17 ± 0.02% | β-Sheet (α-amylase [1]): 10.94 ± 0.01% | β-Turn (α-amylase [1]): 35.19 ± 0.06% | Random Coil (α-glucosidase [2]): 25.05 ± 0.07% | α-Helix (α-glucosidase [2]): 23.65 ± 0.03% | β-Antiparallel (α-glucosidase [2]): 2.59 ± 0.01% | β-Sheet (α-glucosidase [2]): 10.93 ± 0.05% | β-Turn (α-glucosidase [2]): 37.78 ± 0.09% | Km (α-amylase [3]; C 25 μg/mL): 2.8021 ± 0.0410 µg/mL | Vmax (α-amylase [3]; C 25 μg/mL): 0.1101 ± 0.0016 ΔOD/min | Km (α-amylase [3]; C 50 μg/mL): 3.1685 ± 0.0729 µg/mL | Vmax (α-amylase [3]; C 50 μg/mL): 0.1050 ± 0.0024 ΔOD/min | Km (α-amylase [3]; C 100 μg/mL): 3.5949 ± 0.0569 µg/mL | Vmax (α-amylase [3]; C 100 μg/mL): 0.0923 ± 0.0015 ΔOD/min | Km (α-amylase [3]; C 150 μg/mL): 3.9016 ± 0.1355 µg/mL | Vmax (α-amylase [3]; C 150 μg/mL): 0.0860 ± 0.0031 ΔOD/min | Km (α-amylase [3]; C 200 μg/mL): 4.2470 ± 0.0673 µg/mL | Vmax (α-amylase [3]; C 200 μg/mL): 0.0785 ± 0.0012 ΔOD/min | type of inhibition of α-amylase (α-amylase [3]): mixed type | reversibility of inhibition of α-amylase (α-amylase [3]): reversible inhibition | Kis (α-amylase [3]): 420.9420 ± 0.2189 µg/mL | Ki (α-amylase [3]; [6]): 135.8043 ± 0.1608 µg/mL | Km (α-glucosidase [4]): 3.3657 ± 0.0431 µg/mL and 3.8284 ± 0.1475 µg/mL and 4.7824 ± 0.1009 µg/mL and 5.4948 ± 0.1841 µg/mL and 6.4626 ± 0.1103 µg/mL | Vmax (α-glucosidase [4]; C 5 μg/mL): 0.1496 ± 0.0019 ΔOD/min | Vmax (α-glucosidase [4]; C 10 μg/mL): 0.1344 ± 0.0052 ΔOD/min | Vmax (α-glucosidase [4]; C 25 μg/mL): 0.1028 ± 0.0022 ΔOD/min | Vmax (α-glucosidase [4]; C 50 μg/mL): 0.0718 ± 0.0024 ΔOD/min | Vmax (α-glucosidase [4]; C 100 μg/mL): 0.0473 ± 0.0008 ΔOD/min | type of inhibition of α-glucosidase (α-glucosidase [4]): mixed type | reversibility of inhibition of α-glucosidase (α-glucosidase [4]): reversible inhibition | Kis (α-glucosidase [4]; enzyme–substrate complex inhibition constant): 38.9429 ± 0.1021 µg/mL | Ki (α-glucosidase [4]; [6]): 13.7332 ± 0.0823 µg/mL | Ka (α-amylase [5]; 298–310 K): 10^3–10^4 L/mol | quenching mechanism of α-amylase fluorescence (α-amylase [5]; 298–310 K): pure static quenching | Ka (binding constant) (α-amylase [5]; T 298 K): 0.20 ± 0.01 ×10^5 L/mol | Kq (α-amylase [5]; T 298 K): 4.37 ± 0.07 ×10^12 L/mol/s | Ksv (α-amylase [5]; T 298 K): 4.37 ± 0.07 ×10^4 L/mol | n (number of binding sites) (α-amylase [5]; T 298 K): 0.93 | ΔG^0 (α-amylase [5]; T 298 K): -5.868 ± 0.012 kcal/mol | Ka (binding constant) (α-amylase [5]; T 304 K): 0.10 ± 0.01 ×10^5 L/mol | Kq (α-amylase [5]; T 304 K): 4.33 ± 0.03 ×10^12 L/mol/s | Ksv (α-amylase [5]; T 304 K): 4.33 ± 0.03 ×10^4 L/mol | n (number of binding sites) (α-amylase [5]; T 304 K): 0.84 | ΔG^0 (α-amylase [5]; T 304 K): -5.566 ± 0.0072 kcal/mol | Ka (binding constant) (α-amylase [5]; T 310 K): 0.06 ± 0.01 ×10^5 L/mol | Kq (α-amylase [5]; T 310 K): 4.32 ± 0.02 ×10^12 L/mol/s | Ksv (α-amylase [5]; T 310 K): 4.32 ± 0.02 ×10^4 L/mol | n (number of binding sites) (α-amylase [5]; T 310 K): 0.78 | ΔG^0 (α-amylase [5]; T 310 K): -5.337 ± 0.012 kcal/mol | ΔH^0 (α-amylase [5]; 298–310 K): -19.04 ± 0.017 kcal/mol | ΔS^0 (α-amylase [5]; 298–310 K): −185.16 ± 0.05 J/mol/k
